Experimental data from ChEMBL document CHEMBL3885881, “DrugMatrix”.

Organism: Rattus norvegicus
Test: DrugMatrix - Regimen: Daily Repeat
Assay type: toxicity, organism-based, Sprague-Dawley
Set-up: regimen Daily Repeat, gender Male, age 6-8 weeks
Settings: in vivo, po, route oral GAVAGE, vehicle 100 % WATER; for ABSOLUTE BASOPHIL / ABSOLUTE EOSINOPHIL / ABSOLUTE LYMPHOCYTE / ABSOLUTE MONOCYTE / ABSOLUTE SEGMENTED NEUTROPHIL / BASOPHIL / EOSINOPHIL / ERYTHROCYTE COUNT / HEMATOCRIT / HEMOGLOBIN / LEUKOCYTE COUNT / LYMPHOCYTE / MEAN CORPUSCULAR HEMOGLOBIN / MEAN CORPUSCULAR HEMOGLOBIN CONCENTRATION / MEAN CORPUSCULAR VOLUME / MONOCYTE / NEUTROPHIL / NUCLEATED RED BLOOD CELLS / PLATELET COUNT: tissue Blood; for ALANINE AMINOTRANSFERASE / ALBUMIN / ALKALINE PHOSPHATASE / ASPARTATE AMINOTRANSFERASE / BLOOD UREA NITROGEN / CARBON DIOXIDE / CHLORIDE / CHOLESTEROL / CREATINE PHOSPHOKINASE / CREATININE / GLUCOSE / LACTATE DEHYDROGENASE / LIPASE / PHOSPHORUS / POTASSIUM / SODIUM / TOTAL BILIRUBIN / TOTAL PROTEIN / URIC ACID: tissue Plasma
[1] = 200 mg/kg, 120 h, dose level Low, time 5 day
[2] = 2000 mg/kg, 72 h, dose level High, time 3 day
[3] = 2000 mg/kg, 120 h, dose level High, time 5 day

CC(O)CO (centres undefined) [PROPYLENE GLYCOL]
ABSOLUTE BASOPHIL [1]: 0 CELLS/uL | ABSOLUTE EOSINOPHIL [1]: 0 CELLS/uL | ABSOLUTE LYMPHOCYTE [1]: 15454 CELLS/uL | ABSOLUTE MONOCYTE [1]: 284.33 CELLS/uL | ABSOLUTE SEGMENTED NEUTROPHIL [1]: 1261.67 CELLS/uL | BASOPHIL [1]: 0% | EOSINOPHIL [1]: 0% | ERYTHROCYTE COUNT [1]: 5.7 x10E6/uL | HEMATOCRIT [1]: 35.5% | HEMOGLOBIN [1]: 14.1 G/DL | LEUKOCYTE COUNT [1]: 17 x10E3/uL | LYMPHOCYTE [1]: 91% | MEAN CORPUSCULAR HEMOGLOBIN [1]: 24.83 pg | MEAN CORPUSCULAR HEMOGLOBIN CONCENTRATION [1]: 39.73 G/DL | MEAN CORPUSCULAR VOLUME [1]: 62.37 fL | MONOCYTE [1]: 1.67% | NEUTROPHIL [1]: 7.33% | NUCLEATED RED BLOOD CELLS [1]: 0 /100WBC | PLATELET COUNT [1]: 1288 x10E3/uL | ALANINE AMINOTRANSFERASE [1]: 49.33 u/L | ALBUMIN [1]: 4.37 G/DL | ALKALINE PHOSPHATASE [1]: 314.33 u/L | ASPARTATE AMINOTRANSFERASE [1]: 76.33 u/L | BLOOD UREA NITROGEN [1]: 18 mg/dL | CARBON DIOXIDE [1]: 25.33 mmol/L | CHLORIDE [1]: 101 MEQ/L | CHOLESTEROL [1]: 73 mg/dL | CREATINE PHOSPHOKINASE [1]: 227.67 u/L | CREATININE [1]: 0.16 mg/dL | GLUCOSE [1]: 165.67 mg/dL | LACTATE DEHYDROGENASE [1]: 181.67 u/L | LIPASE [1]: 8.33 u/L | PHOSPHORUS [1]: 12.87 mg/dL | POTASSIUM [1]: 6.99 MEQ/L | SODIUM [1]: 143.7 MEQ/L | TOTAL BILIRUBIN [1]: 0.23 mg/dL | TOTAL PROTEIN [1]: 6.03 G/DL | URIC ACID [1]: 2.13 mg/dL | ABSOLUTE BASOPHIL [2]: 0 CELLS/uL | ABSOLUTE EOSINOPHIL [2]: 0 CELLS/uL | ABSOLUTE LYMPHOCYTE [2]: 11801.33 CELLS/uL | ABSOLUTE MONOCYTE [2]: 112 CELLS/uL | ABSOLUTE SEGMENTED NEUTROPHIL [2]: 1053.33 CELLS/uL | BASOPHIL [2]: 0% | EOSINOPHIL [2]: 0% | ERYTHROCYTE COUNT [2]: 5.54 x10E6/uL | HEMATOCRIT [2]: 34.73% | HEMOGLOBIN [2]: 13.73 G/DL | LEUKOCYTE COUNT [2]: 12.97 x10E3/uL | LYMPHOCYTE [2]: 90.33% | MEAN CORPUSCULAR HEMOGLOBIN [2]: 24.8 pg | MEAN CORPUSCULAR HEMOGLOBIN CONCENTRATION [2]: 39.53 G/DL | MEAN CORPUSCULAR VOLUME [2]: 62.77 fL | MONOCYTE [2]: 1% | NEUTROPHIL [2]: 8.67% | NUCLEATED RED BLOOD CELLS [2]: 0 /100WBC | PLATELET COUNT [2]: 1166 x10E3/uL | ALANINE AMINOTRANSFERASE [2]: 53.33 u/L | ALBUMIN [2]: 4.3 G/DL | ALKALINE PHOSPHATASE [2]: 390 u/L | ASPARTATE AMINOTRANSFERASE [2]: 82 u/L | BLOOD UREA NITROGEN [2]: 14.33 mg/dL | CARBON DIOXIDE [2]: 23 mmol/L | CHLORIDE [2]: 100.67 MEQ/L | CHOLESTEROL [2]: 65.33 mg/dL | CREATINE PHOSPHOKINASE [2]: 195 u/L | CREATININE [2]: 0.18 mg/dL | GLUCOSE [2]: 154.67 mg/dL | LACTATE DEHYDROGENASE [2]: 119.33 u/L | LIPASE [2]: 10.67 u/L | PHOSPHORUS [2]: 12.87 mg/dL | POTASSIUM [2]: 6.42 MEQ/L | SODIUM [2]: 143.1 MEQ/L | TOTAL BILIRUBIN [2]: 0.17 mg/dL | TOTAL PROTEIN [2]: 5.93 G/DL | URIC ACID [2]: 1.53 mg/dL | ABSOLUTE BASOPHIL [3]: 0 CELLS/uL | ABSOLUTE EOSINOPHIL [3]: 46 CELLS/uL | ABSOLUTE LYMPHOCYTE [3]: 14960.67 CELLS/uL | ABSOLUTE MONOCYTE [3]: 42.67 CELLS/uL | ABSOLUTE SEGMENTED NEUTROPHIL [3]: 1217.33 CELLS/uL | BASOPHIL [3]: 0% | EOSINOPHIL [3]: 0.33% | ERYTHROCYTE COUNT [3]: 5.65 x10E6/uL | HEMATOCRIT [3]: 35.27% | HEMOGLOBIN [3]: 14 G/DL | LEUKOCYTE COUNT [3]: 16.27 x10E3/uL | LYMPHOCYTE [3]: 91.67% | MEAN CORPUSCULAR HEMOGLOBIN [3]: 24.83 pg | MEAN CORPUSCULAR HEMOGLOBIN CONCENTRATION [3]: 39.7 G/DL | MEAN CORPUSCULAR VOLUME [3]: 62.5 fL | MONOCYTE [3]: 0.33% | NEUTROPHIL [3]: 7.67% | NUCLEATED RED BLOOD CELLS [3]: 0 /100WBC | PLATELET COUNT [3]: 1315.33 x10E3/uL | ALANINE AMINOTRANSFERASE [3]: 52 u/L | ALBUMIN [3]: 4.3 G/DL | ALKALINE PHOSPHATASE [3]: 327.33 u/L | ASPARTATE AMINOTRANSFERASE [3]: 76.67 u/L | BLOOD UREA NITROGEN [3]: 17.33 mg/dL | CARBON DIOXIDE [3]: 27 mmol/L | CHLORIDE [3]: 102 MEQ/L | CHOLESTEROL [3]: 69 mg/dL | CREATINE PHOSPHOKINASE [3]: 218 u/L | CREATININE [3]: 0.16 mg/dL | GLUCOSE [3]: 159.33 mg/dL | LACTATE DEHYDROGENASE [3]: 121 u/L | LIPASE [3]: 8.67 u/L | PHOSPHORUS [3]: 12.4 mg/dL | POTASSIUM [3]: 5.9 MEQ/L | SODIUM [3]: 144.67 MEQ/L | TOTAL BILIRUBIN [3]: 0.17 mg/dL | TOTAL PROTEIN [3]: 6.07 G/DL | URIC ACID [3]: 1.43 mg/dL
